Assay [1] relates to HCT-116. Nature of the assay: Cytotoxicity against p53 -/- human HCT116 cells assessed as growth inhibition incubated for 24 hrs by WST-1 assay. The settings on record: HCT-116, 24 h, read-out: LD50 (the source's name). Type of assay: functional. In general terms: Formazan colour is commonly taken as a measure of viable cells.
Assay [2] addresses DNA nucleotidylexotransferase (Bos taurus, UniProt P06526). Nature of the assay: Inhibition of calf TdT polymerase measured at 37 degC for 60 mins.
Assay [3] concerns HCT-116. Nature of the assay: Cytotoxicity against p53 -/- human HCT116 cells assessed as growth inhibition at 200 uM incubated for 24 hrs by WST-1 assay. Type of assay: functional, cell-based.
The target of assay [4] is T1, DNA polymerase eta (Homo sapiens, UniProt Q9Y253).
T1 sequence (Q9Y253 whole entry): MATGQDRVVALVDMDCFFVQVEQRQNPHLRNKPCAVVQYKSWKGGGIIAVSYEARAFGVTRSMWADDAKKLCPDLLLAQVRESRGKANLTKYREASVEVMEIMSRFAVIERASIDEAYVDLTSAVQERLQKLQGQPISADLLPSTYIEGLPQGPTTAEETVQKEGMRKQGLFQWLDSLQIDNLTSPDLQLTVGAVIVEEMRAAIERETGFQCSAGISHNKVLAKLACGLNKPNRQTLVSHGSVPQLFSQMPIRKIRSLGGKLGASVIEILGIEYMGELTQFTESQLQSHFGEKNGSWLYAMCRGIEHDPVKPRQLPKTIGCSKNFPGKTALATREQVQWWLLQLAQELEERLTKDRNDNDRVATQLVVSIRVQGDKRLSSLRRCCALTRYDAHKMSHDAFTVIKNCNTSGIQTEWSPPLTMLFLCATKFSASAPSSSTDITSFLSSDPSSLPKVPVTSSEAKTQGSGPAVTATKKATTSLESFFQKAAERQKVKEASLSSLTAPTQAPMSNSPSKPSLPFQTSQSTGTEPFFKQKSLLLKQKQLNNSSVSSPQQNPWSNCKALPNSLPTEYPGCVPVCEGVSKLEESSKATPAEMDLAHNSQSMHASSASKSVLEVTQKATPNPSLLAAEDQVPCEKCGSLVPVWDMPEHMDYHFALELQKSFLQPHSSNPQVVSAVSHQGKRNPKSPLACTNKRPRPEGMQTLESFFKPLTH
Nature of the assay: Inhibition of human DNA polymerase eta using poly(dA)/oligo(dT)18 (A/T, 2/1)/dTTP DNA template-primer substrate measured at 37 degC for 60 mins.

For assay [5], the system named is HCT-116. Kind of assay: Cytotoxicity against MMS-induced p53 +/+ human HCT116 cells assessed as reduction in clonogenic survival at 13.2 uM incubated for 24 hrs by WST-1 assay relative to control. Type of assay: functional.
Assay [6] deals with T2, DNA polymerase delta catalytic subunit (Homo sapiens, UniProt P28340).
T2 sequence (P28340 whole entry): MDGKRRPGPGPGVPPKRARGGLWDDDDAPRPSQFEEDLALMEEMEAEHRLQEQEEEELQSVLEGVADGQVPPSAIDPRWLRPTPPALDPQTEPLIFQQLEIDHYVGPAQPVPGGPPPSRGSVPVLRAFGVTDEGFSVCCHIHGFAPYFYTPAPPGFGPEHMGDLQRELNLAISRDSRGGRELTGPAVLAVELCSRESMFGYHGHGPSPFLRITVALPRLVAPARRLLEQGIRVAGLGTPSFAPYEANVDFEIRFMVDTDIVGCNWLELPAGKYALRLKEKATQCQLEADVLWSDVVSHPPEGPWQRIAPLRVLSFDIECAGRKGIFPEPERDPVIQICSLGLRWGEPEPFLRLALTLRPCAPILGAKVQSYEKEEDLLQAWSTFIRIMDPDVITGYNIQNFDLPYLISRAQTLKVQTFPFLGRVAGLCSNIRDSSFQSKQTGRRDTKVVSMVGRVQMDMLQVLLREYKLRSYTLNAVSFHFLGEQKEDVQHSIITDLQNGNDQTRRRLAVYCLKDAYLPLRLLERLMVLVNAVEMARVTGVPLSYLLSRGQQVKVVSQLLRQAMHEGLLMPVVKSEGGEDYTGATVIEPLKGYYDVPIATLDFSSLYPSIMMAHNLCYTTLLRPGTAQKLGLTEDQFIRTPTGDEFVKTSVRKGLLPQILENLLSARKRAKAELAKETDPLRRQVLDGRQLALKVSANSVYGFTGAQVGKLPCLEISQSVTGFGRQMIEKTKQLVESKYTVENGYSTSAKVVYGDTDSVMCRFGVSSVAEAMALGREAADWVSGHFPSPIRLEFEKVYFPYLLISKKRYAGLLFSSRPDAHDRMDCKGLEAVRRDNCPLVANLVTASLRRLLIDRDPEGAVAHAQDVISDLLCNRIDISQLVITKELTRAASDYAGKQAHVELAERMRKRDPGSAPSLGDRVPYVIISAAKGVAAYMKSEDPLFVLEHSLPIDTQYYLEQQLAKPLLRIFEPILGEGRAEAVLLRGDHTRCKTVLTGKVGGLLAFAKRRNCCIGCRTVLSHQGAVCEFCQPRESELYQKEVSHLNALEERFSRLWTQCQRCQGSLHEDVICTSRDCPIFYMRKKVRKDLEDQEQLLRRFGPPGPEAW
Kind of assay: Inhibition of human DNA polymerase delta using poly(dA)/oligo(dT)18 (A/T, 2/1)/dTTP DNA template-primer substrate measured at 37 degC for 60 mins.

Assay [7] has as its target DNA-directed DNA/RNA polymerase mu (Homo sapiens, UniProt Q9NP87). Kind of assay: Inhibition of human DNA polymerase mu using poly(dA)/oligo(dT)18 (A/T, 2/1)/dTTP DNA template-primer substrate measured at 37 degC for 60 mins.
The subject of assay [8] is HCT-116. Kind of assay: Cytotoxicity against MMS-induced p53 -/- human HCT116 cells assessed as reduction in clonogenic survival at 13.7 uM incubated for 24 hrs by WST-1 assay relative to control. Format: functional.
Assay [9] concerns HCT-116. Kind of assay: Cytotoxicity against p53 +/+ human HCT116 cells assessed as growth inhibition incubated for 24 hrs by WST-1 assay. Format: functional. The settings on record: HCT-116, 24 h, read-out: LD50 (the source's name).

The source made the active and inactive calls. The calls are words filed in the database; no cut-off is given here.

By IC50 is commonly meant the concentration that gives 50% inhibition.

DNA-directed DNA/RNA polymerase mu, sequence (Q9NP87 whole entry): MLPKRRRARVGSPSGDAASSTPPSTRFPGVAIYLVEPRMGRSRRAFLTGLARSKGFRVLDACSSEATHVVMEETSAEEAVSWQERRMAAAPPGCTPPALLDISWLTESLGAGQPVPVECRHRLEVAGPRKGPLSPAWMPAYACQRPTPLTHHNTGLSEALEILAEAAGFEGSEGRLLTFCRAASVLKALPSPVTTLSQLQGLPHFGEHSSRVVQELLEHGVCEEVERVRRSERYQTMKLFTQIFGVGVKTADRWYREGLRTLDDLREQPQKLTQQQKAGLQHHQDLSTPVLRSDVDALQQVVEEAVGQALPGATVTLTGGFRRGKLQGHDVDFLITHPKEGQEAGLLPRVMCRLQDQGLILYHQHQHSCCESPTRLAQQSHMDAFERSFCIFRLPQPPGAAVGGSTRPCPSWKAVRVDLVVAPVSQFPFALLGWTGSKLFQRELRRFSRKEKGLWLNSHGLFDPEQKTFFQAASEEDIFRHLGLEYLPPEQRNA
DNA nucleotidylexotransferase, sequence (P06526 whole entry): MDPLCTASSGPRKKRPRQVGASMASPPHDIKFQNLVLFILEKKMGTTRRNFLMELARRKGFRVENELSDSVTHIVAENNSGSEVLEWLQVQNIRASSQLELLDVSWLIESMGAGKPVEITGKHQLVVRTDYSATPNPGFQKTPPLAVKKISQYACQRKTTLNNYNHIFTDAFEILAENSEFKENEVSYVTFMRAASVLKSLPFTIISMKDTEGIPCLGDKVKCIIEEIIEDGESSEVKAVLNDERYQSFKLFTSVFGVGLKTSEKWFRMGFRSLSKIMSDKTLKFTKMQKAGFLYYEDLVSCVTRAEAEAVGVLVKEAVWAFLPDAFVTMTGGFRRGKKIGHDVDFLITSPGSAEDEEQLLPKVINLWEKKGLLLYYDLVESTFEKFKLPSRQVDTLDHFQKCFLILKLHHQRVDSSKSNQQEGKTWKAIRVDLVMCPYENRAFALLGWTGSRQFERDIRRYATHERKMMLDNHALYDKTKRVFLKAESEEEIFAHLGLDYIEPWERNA

Consider `CC[C@H](C)[C@H](NC(=O)[C@H](Cc1ccc(O)cc1)NC(=O)OC(C)(C)C)C(=O)Nc1cccc2ccccc12`, for which the CC50 stood at 13.7 µM in assay [1] and 13.2 µM in assay [9]. The 50% inhibitory concentration (IC50) in assay [2], in assay [4], in assay [6] and in assay [7] was over 200 µM throughout. In addition, the “growth inhibition (GI)” value in assay [3] was “Active”. Moreover, the entries for the “fold change (FC)” value in [5] and in assay [8] were 2 and 25, respectively.

These data come from ChEMBL document CHEMBL2331167, “Inhibitory effect of novel somatostatin peptide analogues on human cancer cell growth based on the selective inhibition of DNA polymerase β” (Bioorg Med Chem, 2013).
